Earlier results as cited in US10589003B2, “Methods for coating surfaces with antimicrobial agents” (The Board of Regents of the University of Texas System, priority 2005, dated 2020).

Tested on: Pseudomonas aeruginosa
Settings: agent on its own; gentian violet after impregnating polymer surfaces incl. polyvinylchloride

SMILES: CN(C)c1ccc(C(=C2C=CC(=[N+](C)C)C=C2)c2ccc(N(C)C)cc2)cc1 [gentian violet]
- activity against Pseudomonas aeruginosa: no activity

SMILES: [H]/N=C(\N/C(=N/[H])NCCCCCCNC(=N)NC(=N)Nc1ccc(Cl)cc1)Nc1ccc(Cl)cc1 [chlorhexidine]
- activity against Pseudomonas aeruginosa: not highly active
